In PubChem BioAssay AID1259407 (Chemical Carcinogenesis Research Information System (CCRIS), 2018):
The source made the active and inactive calls. The rule behind the calls is not given here.

System: CCRIS mutagenicity, Ames/micronucleus/aberration tests
Assay: CCRIS mutagenicity studies
[1] = Test System: Ames Salmonella typhimurium, Strain/Indicator: TA98, Metabolic Activation: None, Method: Preincubation
[2] = Test System: Ames Salmonella typhimurium, Strain/Indicator: TA100, Metabolic Activation: None, Method: Preincubation
[3] = Test System: AMES SALMONELLA TYPHIMURIUM, Strain/Indicator: TA98, Metabolic Activation: NONE, Method: STANDARD PLATE
[4] = Test System: AMES SALMONELLA TYPHIMURIUM, Strain/Indicator: TA98, Metabolic Activation: RAT, LIVER, S-9, Method: STANDARD PLATE
[5] = Test System: AMES SALMONELLA TYPHIMURIUM, Strain/Indicator: TA100, Metabolic Activation: NONE, Method: STANDARD PLATE
[6] = Test System: AMES SALMONELLA TYPHIMURIUM, Strain/Indicator: TA100, Metabolic Activation: RAT, LIVER, S-9, Method: STANDARD PLATE

**Q.** For `CC12C=CC(C1)C1C(=O)OC(=O)C12` (stereo not given), which mutagenic call [1] is on record?
**A.** Its mutagenic call is “inactive; negative”.

**Q.** And the mutagenic call (Test System: Ames Salmonella typhimurium, Strain/Indicator: TA98, Metabolic Activation: Rat, Liver, S-9, Phenobarbital and 5,6-benzoflavone, Method: Preincubation)?
**A.** The mutagenic call was “inactive; negative”.

**Q.** What about the mutagenic call [2] of the same compound?
**A.** Its mutagenic call is “inactive; negative”.

**Q.** And the mutagenic call (Test System: Ames Salmonella typhimurium, Strain/Indicator: TA100, Metabolic Activation: Rat, Liver, S-9, Phenobarbital and 5,6-benzoflavone, Method: Preincubation)?
**A.** Its mutagenic call is “inactive; negative”.

**Q.** What about the mutagenic call (Test System: Ames Salmonella typhimurium, Strain/Indicator: TA1535, Metabolic Activation: None, Method: Preincubation) of the same compound?
**A.** Its mutagenic call is “inactive; negative”.

**Q.** What about the mutagenic call (Test System: Ames Salmonella typhimurium, Strain/Indicator: TA1535, Metabolic Activation: Rat, Liver, S-9, Phenobarbital and 5,6-benzoflavone, Method: Preincubation) of the same compound?
**A.** The mutagenic call was “inactive; negative”.

**Q.** What about the mutagenic call (Test System: Ames Salmonella typhimurium, Strain/Indicator: TA1537, Metabolic Activation: None, Method: Preincubation) of the same compound?
**A.** The mutagenic call was “inactive; negative”.

**Q.** And the mutagenic call (Test System: Ames Salmonella typhimurium, Strain/Indicator: TA1537, Metabolic Activation: Rat, Liver, S-9, Phenobarbital and 5,6-benzoflavone, Method: Preincubation)?
**A.** The mutagenic call was “inactive; negative”.

**Q.** And the mutagenic call (Test System: E. coli, Strain/Indicator: WP2uvrA/pKM101, Metabolic Activation: None, Method: Preincubation)?
**A.** Its mutagenic call is “inactive; negative”.

**Q.** And the mutagenic call (Test System: E. coli, Strain/Indicator: WP2uvrA/pKM101, Metabolic Activation: Rat, Liver, S-9, Phenobarbital and 5,6-benzoflavone, Method: Preincubation)?
**A.** The mutagenic call was “inactive; negative”.

**Q.** With `CN(C)c1ccc(N=Nc2ccc(C=O)cc2)cc1` as the compound, how does the mutagenic call (Test System: AMES SALMONELLA TYPHIMURIUM, Strain/Indicator: TA98, Metabolic Activation: RAT, LIVER, S-9, POLYCHLORINATED BIPHENYLS, Method: PREINCUBATION) read?
**A.** The mutagenic call was “active; positive”.

**Q.** And the mutagenic call (Test System: AMES SALMONELLA TYPHIMURIUM, Strain/Indicator: TA100, Metabolic Activation: RAT, LIVER, S-9, POLYCHLORINATED BIPHENYLS, Method: PREINCUBATION)?
**A.** The mutagenic call was “active; positive”.

**Q.** Which mutagenic call (Test System: AMES SALMONELLA TYPHIMURIUM, Strain/Indicator: TA98, Metabolic Activation: NONE, Method: PREINCUBATION) does the source give for `O=[N+]([O-])c1cc(-c2ccccc2)ccc1O` here?
**A.** The mutagenic call was “inactive; negative”.

**Q.** For `CCOP(=O)=O.CCOP(=O)=O.CCOP(=O)=O.[Al+3]`, which mutagenic call (End Point: IN VIVO MICRONUCLEUS, Test System: BONE MARROW POLYCHROMATIC ERYTHROCYTES, Species: MOUSE, Strain/Sex: SWISS/MALE, FEMALE, Route: IP 2X IN AQUEOUS SUSPENSION WITHIN 24 HR) is on record?
**A.** The mutagenic call was “active; positive”.

**Q.** Which results are given for `Cn1c2ccccc2c(=O)c2c(O)cc3c(c21)CC(C1(C)CO1)O3` (stereo not given)?
**A.** mutagenic call [3]: active; positive; mutagenic call (Test System: AMES SALMONELLA TYPHIMURIUM, Strain/Indicator: TA98, Metabolic Activation: RAT, LIVER, S-9, 3-METHYLCHOLANTHRENE, Method: STANDARD PLATE): active; positive; mutagenic call (Test System: AMES SALMONELLA TYPHIMURIUM, Strain/Indicator: TA98, Metabolic Activation: RAT, LIVER, S-9, PHENOBARBITAL, Method: STANDARD PLATE): active; positive; mutagenic call [4]: active; positive; mutagenic call [5]: active; positive; mutagenic call (Test System: AMES SALMONELLA TYPHIMURIUM, Strain/Indicator: TA100, Metabolic Activation: RAT, LIVER, S-9, 3-METHYLCHOLANTHRENE, Method: STANDARD PLATE): active; positive; mutagenic call (Test System: AMES SALMONELLA TYPHIMURIUM, Strain/Indicator: TA100, Metabolic Activation: RAT, LIVER, S-9, PHENOBARBITAL, Method: STANDARD PLATE): active; positive; mutagenic call [6]: active; positive

**Q.** `CNC(=O)ON` was tested. Which mutagenic call [3] did it give?
**A.** The mutagenic call was “active; positive”.

**Q.** What about the mutagenic call [4] of the same compound?
**A.** Its mutagenic call is “active; positive”.

**Q.** And the mutagenic call [5]?
**A.** Its mutagenic call is “active; positive”.

**Q.** For `[O-][n+]1c2ccccc2c2ccc3cccc4ccc1c2c34`, which mutagenic call (Test System: AMES SALMONELLA TYPHIMURIUM, Strain/Indicator: TA98, Metabolic Activation: NONE) is on record?
**A.** Its mutagenic call is “inactive; negative”.

**Q.** And the mutagenic call (Test System: AMES SALMONELLA TYPHIMURIUM, Strain/Indicator: TA98, Metabolic Activation: S-9)?
**A.** The mutagenic call was “active; positive”.

**Q.** And the mutagenic call (Test System: AMES SALMONELLA TYPHIMURIUM, Strain/Indicator: TA100, Metabolic Activation: NONE)?
**A.** Its mutagenic call is “inactive; negative”.

**Q.** And the mutagenic call (Test System: AMES SALMONELLA TYPHIMURIUM, Strain/Indicator: TA100, Metabolic Activation: S-9)?
**A.** Its mutagenic call is “active; positive”.

**Q.** What does the source list for `CN=c1ccc2nc3ccc(N)cc3sc-2c1`?
**A.** mutagenic call [1]: active; positive; mutagenic call (Test System: Ames Salmonella typhimurium, Strain/Indicator: TA98, Metabolic Activation: Rat, Liver, S-9, Aroclor 1254 (10%), Method: Preincubation): active; positive; mutagenic call [2]: active; positive; mutagenic call (Test System: Ames Salmonella typhimurium, Strain/Indicator: TA100, Metabolic Activation: Rat, Liver, S-9, Aroclor 1254 (10%), Method: Preincubation): active; positive; mutagenic call (Test System: E. coli, Strain/Indicator: WPM uvrA/pKM101, Metabolic Activation: None, Method: Preincubation): active; positive; mutagenic call (Test System: E. coli, Strain/Indicator: WPM uvrA/pKM101, Metabolic Activation: Rat, Liver, S-9, Aroclor 1254 (10%), Method: Preincubation): active; positive

**Q.** `CC(/C=C(/C#N)c1ccc(Cl)c(Cl)c1)C(c1ccccc1)C(C#N)c1ccc(Cl)c(Cl)c1` (stereo not given) was tested. Which mutagenic call [5] did it give?
**A.** The mutagenic call was “active; positive”.

**Q.** For `CCOP(=O)(NC(C)C)Oc1ccccc1C(=O)OC(C)C` (stereo not given), which mutagenic call [3] is on record?
**A.** The mutagenic call was “active; positive”.

**Q.** What about the mutagenic call [4] of the same compound?
**A.** The mutagenic call was “active; positive”.

**Q.** What about the mutagenic call [5] of the same compound?
**A.** The mutagenic call was “inactive; negative”.

**Q.** And the mutagenic call [6]?
**A.** Its mutagenic call is “inactive; negative”.
